Test results as given in PubChem BioAssay (NCI).
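Compound exposure: 48 hours, 5 concentrations, 96-well plates. Definition used: TGI = concentration required for complete inhibition of growth.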

What was measured:
Experiment in all cases: DTP human tumour cell line panel, 48 h
786-0 renal = system: 786-0 renal
BT-549 breast = system: BT-549 breast
RXF 393 renal = system: RXF 393 renal
NCI-H23 lung = system: NCI-H23 lung
MOLT-4 leukemia = system: MOLT-4 leukemia
U251 CNS = system: U251 CNS
UO-31 renal = system: UO-31 renal
HOP-62 NSCLC = system: HOP-62 NSCLC
ACHN renal = system: ACHN renal
CCRF-CEM leukemia = system: CCRF-CEM leukemia
SNB-75 CNS = system: SNB-75 CNS
HCT-116 colon = system: HCT-116 colon
LOX IMVI melanoma = system: LOX IMVI melanoma
MALME-3M melanoma = system: MALME-3M melanoma
OVCAR-3 ovarian = system: OVCAR-3 ovarian
SF-295 CNS = system: SF-295 CNS
SNB-19 CNS = system: SNB-19 CNS
SK-MEL-2 melanoma = system: SK-MEL-2 melanoma
A549 NSCLC = system: A549 NSCLC
SK-MEL-5 melanoma = system: SK-MEL-5 melanoma
K-562 leukemia = system: K-562 leukemia
MCF7 breast = system: MCF7 breast
HCT-15 colon = system: HCT-15 colon
SN12C renal = system: SN12C renal
MDA-N = system: MDA-N
SF-268 CNS = system: SF-268 CNS
PC-3 prostate = system: PC-3 prostate
SF-539 CNS = system: SF-539 CNS
HL-60(TB) leukemia = system: HL-60(TB) leukemia
OVCAR-8 ovarian = system: OVCAR-8 ovarian
HS 578T breast = system: HS 578T breast
HT29 colon = system: HT29 colon
SR leukemia = system: SR leukemia
HCC-2998 colon = system: HCC-2998 colon
SW-620 colon = system: SW-620 colon
KM12 colon = system: KM12 colon
DU-145 prostate = system: DU-145 prostate
T-47D breast = system: T-47D breast
RPMI-8226 leukemia = system: RPMI-8226 leukemia
A498 renal = system: A498 renal
NCI-H522 lung = system: NCI-H522 lung
TK-10 renal = system: TK-10 renal
EKVX NSCLC = system: EKVX NSCLC
NCI-H226 lung = system: NCI-H226 lung
IGROV1 ovarian = system: IGROV1 ovarian
CAKI-1 renal = system: CAKI-1 renal
OVCAR-5 ovarian = system: OVCAR-5 ovarian
UACC-257 melanoma = system: UACC-257 melanoma
SK-MEL-28 melanoma = system: SK-MEL-28 melanoma
MDA-MB-231 breast = system: MDA-MB-231 breast
NCI-H460 lung = system: NCI-H460 lung
UACC-62 melanoma = system: UACC-62 melanoma
M14 melanoma = system: M14 melanoma
COLO 205 colon = system: COLO 205 colon
SK-OV-3 ovarian = system: SK-OV-3 ovarian
MDA-MB-435 = system: MDA-MB-435
OVCAR-4 ovarian = system: OVCAR-4 ovarian
NCI/ADR-RES ovarian = system: NCI/ADR-RES ovarian

Measured: TGI

Cc1c(C#N)c(N)[nH]c(=S)c1C#N
> 100 µM: 786-0 renal | BT-549 breast | RXF 393 renal | NCI-H23 lung | MOLT-4 leukemia | U251 CNS | UO-31 renal | HOP-62 NSCLC | ACHN renal | CCRF-CEM leukemia | SNB-75 CNS | HCT-116 colon | LOX IMVI melanoma | MALME-3M melanoma | OVCAR-3 ovarian | SF-295 CNS | SNB-19 CNS | SK-MEL-2 melanoma | A549 NSCLC | SK-MEL-5 melanoma | K-562 leukemia | MCF7 breast | HCT-15 colon | SN12C renal | MDA-N | SF-268 CNS | PC-3 prostate | SF-539 CNS | HL-60(TB) leukemia | OVCAR-8 ovarian | HS 578T breast | HT29 colon | SR leukemia | HCC-2998 colon | SW-620 colon | KM12 colon | DU-145 prostate | T-47D breast | RPMI-8226 leukemia | A498 renal | NCI-H522 lung | TK-10 renal | EKVX NSCLC | NCI-H226 lung | IGROV1 ovarian | CAKI-1 renal | OVCAR-5 ovarian | UACC-257 melanoma | SK-MEL-28 melanoma | MDA-MB-231 breast | NCI-H460 lung | UACC-62 melanoma

c1ccc(N=C(N2CCOCC2)N(CCN2CCOCC2)c2ccccc2)cc1
> 100 µM: 786-0 renal | BT-549 breast | RXF 393 renal | NCI-H23 lung | M14 melanoma | MOLT-4 leukemia | U251 CNS | UO-31 renal | HOP-62 NSCLC | CCRF-CEM leukemia | SNB-75 CNS | COLO 205 colon | SK-OV-3 ovarian | HCT-116 colon | LOX IMVI melanoma | MALME-3M melanoma | OVCAR-3 ovarian | SF-295 CNS | SNB-19 CNS | SK-MEL-2 melanoma | A549 NSCLC | SK-MEL-5 melanoma | K-562 leukemia | MCF7 breast | HCT-15 colon | SN12C renal | MDA-N | SF-268 CNS | PC-3 prostate | SF-539 CNS | OVCAR-8 ovarian | HS 578T breast | HT29 colon | SR leukemia | HCC-2998 colon | SW-620 colon | KM12 colon | MDA-MB-435 | DU-145 prostate | T-47D breast | OVCAR-4 ovarian | RPMI-8226 leukemia | NCI-H522 lung | TK-10 renal | EKVX NSCLC | NCI-H226 lung | IGROV1 ovarian | CAKI-1 renal | UACC-257 melanoma | SK-MEL-28 melanoma | MDA-MB-231 breast | NCI-H460 lung | UACC-62 melanoma

CC1(C)O[C@H]([C@H](O)c2nnc3ccc(Cl)nn23)[C@@H]([C@H]2COC(C)(C)O2)O1
> 100 µM: 786-0 renal | BT-549 breast | RXF 393 renal | NCI-H23 lung | M14 melanoma | MOLT-4 leukemia | U251 CNS | HOP-62 NSCLC | ACHN renal | CCRF-CEM leukemia | COLO 205 colon | SK-OV-3 ovarian | HCT-116 colon | LOX IMVI melanoma | MALME-3M melanoma | OVCAR-3 ovarian | SF-295 CNS | SNB-19 CNS | SK-MEL-2 melanoma | A549 NSCLC | SK-MEL-5 melanoma | MCF7 breast | HCT-15 colon | SN12C renal | MDA-N | SF-268 CNS | PC-3 prostate | SF-539 CNS | HL-60(TB) leukemia | NCI/ADR-RES ovarian | OVCAR-8 ovarian | HS 578T breast | HT29 colon | HCC-2998 colon | SW-620 colon | KM12 colon | MDA-MB-435 | DU-145 prostate | T-47D breast | OVCAR-4 ovarian | RPMI-8226 leukemia | A498 renal | NCI-H522 lung | TK-10 renal | EKVX NSCLC | IGROV1 ovarian | CAKI-1 renal | OVCAR-5 ovarian | UACC-257 melanoma | SK-MEL-28 melanoma | MDA-MB-231 breast | NCI-H460 lung | UACC-62 melanoma
